{"source": "patent US10179816B2", "about": "“Pharmaceutical compositions comprising an antibody which binds the human anti-Müllerian hormone receptor type II” (LABORATOIRE FRANCAIS DU FRACTIONNEMENT DES BIOTECHNOLOGIES, priority 2011, dated 2019)", "test_system": "Cov434-AMHRII Asc1a5 (cell line of human ovarian cancer transfected with cDNA AMHRII)", "assay": "Anti-tumour activity of 3C23K alone or with carboplatin in Cov434-AMHRII Asc1a5 xenograft (tumour volume, T/C ratio, statistical analysis)", "type": "in vivo, female Swiss nude mouse", "method": "The 3C23K antibody was evaluated according to the following scheme: 2 times per week for 6 weeks, for a total of 12 injections at about 10 mg/kg/injection, said administration regimen being designated below as “Q3-4D12”. Another group of mice was treated with an irrelevant antibody LFB-R565, administered at about 10 mg/kg/injection, according to the regimen Q3-4D12.\nCarboplatin was evaluated, at a sub-optimum dose, i.e. about 60 mg/kg/injection, according to the following scheme: once a week, for 4 weeks, said administration regimen being designated below as “Q7D4”.\nCarboplatin was also evaluated in combination with the 3C23K antibody or with the irrelevant antibody LFB-R565. Carboplatin was administered at about 60 mg/kg/injection according to the Q7D4 regimen and the 3C23K antibody or the irrelevant antibody LFB-R565 at about 10 mg/kg/injection according to the regimen Q3-4D12.\nThe mice were randomized on D11, when the volume of the tumours was between 50 and 158 mm^3, and the treatments began on D13 (9 mice per group).\nThe tumours were usually measured twice weekly.\nThe curves of the individual volume of the tumours were plotted.\nIn one experiment with 9 mice per group, the curves and analyses were therefore stopped when fewer than 8 values per group had been obtained (8 mice alive).\nA Kruskal-Wallis test was also carried out.", "key": {"[1]": {"conditions": "D11, randomization, before treatment"}}, "note": "Several values for one entry are separate records, joined by “and”; a condition that tells them apart may be missing. Equal entries are not always repeated. Entries after “also recorded” stand apart in the source; their conditions may differ."}
{"substance": "3C23K: mutated humanized 12G4 monoclonal antibody binding AMHR-II, produced by the 3C23K clone; light chain SEQ ID NO: 11, heavy chain SEQ ID NO: 13", "values": [{"measurement": "Individual tumour volume", "setting": "[1]", "value": "98 mm^3 and 90 mm^3 and 61 mm^3 and 80 mm^3 and 57 mm^3 and 147 mm^3 and 113 mm^3 and 72 mm^3"}, {"measurement": "Mean tumour volume", "setting": "[1]", "value": 88, "unit": "mm^3"}, {"measurement": "Median tumour volume", "setting": "[1]", "value": 80, "unit": "mm^3"}, {"measurement": "Individual tumour volume", "setting": "D14", "value": "104 mm^3 and 179 mm^3 and 60 mm^3 and 72 mm^3 and 67 mm^3 and 216 mm^3 and 166 mm^3 and 84 mm^3"}, {"measurement": "Mean tumour volume", "setting": "D14", "value": 111, "unit": "mm^3"}, {"measurement": "Median tumour volume", "setting": "D14", "value": 84, "unit": "mm^3"}, {"measurement": "Individual tumour volume", "setting": "D18", "value": "72 mm^3 (2×) and 88 mm^3 and 36 mm^3 and 21 mm^3 and 41 mm^3 and 140 mm^3 and 80 mm^3"}, {"measurement": "Mean tumour volume", "setting": "D18", "value": 67, "unit": "mm^3"}, {"measurement": "Median tumour volume", "setting": "D18", "value": 72, "unit": "mm^3"}, {"measurement": "Individual tumour volume", "setting": "D22", "value": "60 mm^3 and 150 mm^3 and 30 mm^3 and 0 mm^3 and 36 mm^3 and 131 mm^3 and 77 mm^3 and 158 mm^3"}, {"measurement": "Mean tumour volume", "setting": "D22", "value": 79, "unit": "mm^3"}, {"measurement": "Median tumour volume", "setting": "D22", "value": 70, "unit": "mm^3"}, {"measurement": "Individual tumour volume", "setting": "D25", "value": "0 mm^3 (3×) and 126 mm^3 and 24 mm^3 and 180 mm^3 and 74 mm^3 and 216 mm^3"}, {"measurement": "Mean tumour volume", "setting": "D25", "value": 79, "unit": "mm^3"}, {"measurement": "Median tumour volume", "setting": "D25", "value": 74, "unit": "mm^3"}, {"measurement": "Individual tumour volume", "setting": "D29", "value": "0 mm^3 (2×) and 322 mm^3 and 27 mm^3 and 48 mm^3 and 225 mm^3 and 146 mm^3 and 385 mm^3"}, {"measurement": "Mean tumour volume", "setting": "D29", "value": 151, "unit": "mm^3"}, {"measurement": "Median tumour volume", "setting": "D29", "value": 146, "unit": "mm^3"}, {"measurement": "Individual tumour volume", "setting": "D32", "value": "0 mm^3 (2×) and 501 mm^3 and 27 mm^3 and 15 mm^3 and 275 mm^3 and 180 mm^3 and 644 mm^3"}, {"measurement": "Mean tumour volume", "setting": "D32", "value": 221, "unit": "mm^3"}, {"measurement": "Median tumour volume", "setting": "D32", "value": 180, "unit": "mm^3"}, {"measurement": "Individual tumour volume", "setting": "D36", "value": "0 mm^3 (3×) and 653 mm^3 and 87 mm^3 and 363 mm^3 and 182 mm^3 and 784 mm^3"}, {"measurement": "Mean tumour volume", "setting": "D36", "value": 278, "unit": "mm^3"}, {"measurement": "Median tumour volume", "setting": "D36", "value": 182, "unit": "mm^3"}, {"measurement": "Individual tumour volume", "setting": "D39", "value": "0 mm^3 (3×) and 784 mm^3 and 210 mm^3 and 315 mm^3 and 182 mm^3 and 1200 mm^3 and 546 mm^3"}, {"measurement": "Mean tumour volume", "setting": "D39", "value": 360, "unit": "mm^3"}, {"measurement": "Median tumour volume", "setting": "D39", "value": 210, "unit": "mm^3"}, {"measurement": "Individual tumour volume", "setting": "D43", "value": "0 mm^3 (3×) and 1171 mm^3 and 420 mm^3 and 631 mm^3 and 393 mm^3 and 1403 mm^3 and 731 mm^3"}, {"measurement": "Mean tumour volume", "setting": "D43", "value": 528, "unit": "mm^3"}, {"measurement": "Median tumour volume", "setting": "D43", "value": 420, "unit": "mm^3"}, {"measurement": "Individual tumour volume", "setting": "D46", "value": "0 mm^3 (3×) and 1683 mm^3 and 598 mm^3 and 504 mm^3 and 275 mm^3 and 1650 mm^3 and 518 mm^3"}, {"measurement": "Mean tumour volume", "setting": "D46", "value": 581, "unit": "mm^3"}, {"measurement": "Median tumour volume", "setting": "D46", "value": 504, "unit": "mm^3"}, {"measurement": "Individual tumour volume", "setting": "D49", "value": "0 mm^3 (3×) and 1870 mm^3 and 1188 mm^3 and 784 mm^3 and 655 mm^3 and 2646 mm^3 and 945 mm^3"}, {"measurement": "Mean tumour volume", "setting": "D49", "value": 899, "unit": "mm^3"}, {"measurement": "Median tumour volume", "setting": "D49", "value": 784, "unit": "mm^3"}, {"measurement": "Anti-tumour activity (in words)", "setting": "carboplatin study, comparator as stated in the sentence", "value": "significant anti-tumour activity; also recorded: anti-tumour effect greater than carboplatin; also recorded: exerts anti-tumour activity"}, {"measurement": "T/C ratio", "setting": "relative to Control group, D11 (before treatment)", "value": 88, "unit": "%"}, {"measurement": "T/C ratio", "setting": "relative to Control group, D14", "value": 52, "unit": "%"}, {"measurement": "T/C ratio", "setting": "relative to Control group, D18", "value": 33, "unit": "%"}, {"measurement": "T/C ratio", "setting": "relative to Control group, D22", "value": 18, "unit": "%"}, {"measurement": "T/C ratio", "setting": "relative to Control group, D25", "value": 17, "unit": "%"}, {"measurement": "T/C ratio", "setting": "relative to Control group, D29", "value": 23, "unit": "%"}, {"measurement": "T/C ratio", "setting": "relative to Control group, D32", "value": 18, "unit": "%"}, {"measurement": "T/C ratio", "setting": "relative to Control group, D36", "value": 12, "unit": "%"}, {"measurement": "T/C ratio", "setting": "relative to LFB-R565, after D18 up to D36", "value": "less than 26%"}, {"measurement": "T/C ratio", "setting": "relative to LFB-R565 group, D11 (before treatment)", "value": 99, "unit": "%"}, {"measurement": "T/C ratio", "setting": "relative to LFB-R565 group, D14", "value": 55, "unit": "%"}, {"measurement": "T/C ratio", "setting": "relative to LFB-R565 group, D18", "value": 41, "unit": "%"}, {"measurement": "T/C ratio", "setting": "relative to LFB-R565 group, D22", "value": 26, "unit": "%"}, {"measurement": "T/C ratio", "setting": "relative to LFB-R565 group, D25", "value": 18, "unit": "%"}, {"measurement": "T/C ratio", "setting": "relative to LFB-R565 group, D29", "value": 21, "unit": "%"}, {"measurement": "T/C ratio", "setting": "relative to LFB-R565 group, D32", "value": 26, "unit": "%"}, {"measurement": "T/C ratio", "setting": "relative to LFB-R565 group, D36", "value": 10, "unit": "%"}, {"measurement": "T/C ratio", "setting": "relative to carboplatin group, D11 (before treatment)", "value": 99, "unit": "%"}, {"measurement": "T/C ratio", "setting": "relative to carboplatin group, D14", "value": 63, "unit": "%"}, {"measurement": "T/C ratio", "setting": "relative to carboplatin group, D18", "value": 64, "unit": "%"}, {"measurement": "T/C ratio", "setting": "relative to carboplatin group, D22", "value": 26, "unit": "%"}, {"measurement": "T/C ratio", "setting": "relative to carboplatin group, D25", "value": 31, "unit": "%"}, {"measurement": "T/C ratio", "setting": "relative to carboplatin group, D29", "value": 41, "unit": "%"}, {"measurement": "T/C ratio", "setting": "relative to carboplatin group, D32", "value": 39, "unit": "%"}, {"measurement": "T/C ratio", "setting": "relative to carboplatin group, D36", "value": 29, "unit": "%"}, {"measurement": "T/C ratio", "setting": "relative to carboplatin group, D39", "value": 32, "unit": "%"}, {"measurement": "T/C ratio", "setting": "relative to carboplatin group, D43", "value": 48, "unit": "%"}, {"measurement": "T/C ratio", "setting": "relative to carboplatin group, from D22 to D39", "value": "less than 42%"}, {"measurement": "T/C ratio", "setting": "relative to control, after D18 (from D22) up to D36", "value": "less than 23%"}]}
